Target: T1, LTD4 (Cavia porcellus, UniProt Q2NNR5)
T1 construct: tracheal spiral strips of approximate dimensions 2 to 3 mm cross-sectional width; from tissue; host or cells: guinea pig (adult male albino Hartley) tracheal spiral strips
T1 sequence (Q2NNR5 1-340): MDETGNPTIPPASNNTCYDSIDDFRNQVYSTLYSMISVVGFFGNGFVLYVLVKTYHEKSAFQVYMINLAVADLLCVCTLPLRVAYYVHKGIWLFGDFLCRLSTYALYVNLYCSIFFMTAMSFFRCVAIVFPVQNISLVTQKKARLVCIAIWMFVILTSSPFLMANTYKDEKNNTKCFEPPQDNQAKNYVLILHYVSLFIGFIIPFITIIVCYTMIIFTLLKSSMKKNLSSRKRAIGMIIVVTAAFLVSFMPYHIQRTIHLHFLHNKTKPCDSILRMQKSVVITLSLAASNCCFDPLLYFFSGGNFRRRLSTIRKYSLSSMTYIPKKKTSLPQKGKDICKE
Assay: inhibition of leukotriene (LTD4) induced contraction of guinea pig tracheal tissues in vitro
Assay type: cell-based
Protocol: The leukotriene antagonist activity of the compounds of this invention was measured by the ability of the compounds to inhibit the leukotriene induced contraction of guinea pig tracheal tissues in vitro. The following methodology was employed: In vitro: Guinea pig (adult male albino Hartley strain) tracheal spiral strips of approximate dimensions 2 to 3 mm cross-sectional width and 3.5 cm length were bathed in modified Krebs buffer in jacketed 10 ml tissue bath and continuously aerated with 95% O2 /5% CO2. The tissues were connected via silk suture to force displacement transducers for recording isometric tension. The tissues were equilibrated for 1 hour, pretreated for 15 minutes with meclofenamic acid ([…]) to remove intrinsic prostaglandin responses, and then pretreated for an additional 30 minutes with either the test compound or vehicle control. […]
Calculations: The averages of the triplicate LTD4 concentration-response curves both in the presence and absence of the test compound were plotted on log graph paper. The concentration of LTD4 needed to elicit 30% of the contraction elicited by carbachol was measured and defined as the EC30. The -log KB value for the test compound was determined by the following equations: [formula] […]
The antagonist activity of representative compounds of this invention is tabulated below. The -log KB values were calculated from the above test protocols. […]

O=C(O)CCSC(CC(=O)O)c1ccccc1CCCCCCCc1ccc2ccc(Cl)cc2n1 (centres unmarked) [3-{2-[7-(2-(7-Chloro)quinolinyl)heptyl]phenyl}-3,3'-thiodipropionic acid]
Kb (LTD4 concentration-response on guinea pig tracheal spiral strips, EC30 shift, 30 min pretreatment with test compound, read-out: pKB (-log KB) (converted)): 31.6 nM
Ki (stated as 'in this assay', separate method not given): 7.7 nM
